One assay concerns the target KDR (Homo sapiens (Human), UniProt P35968). Put plainly: KDR kinase inhibition, luciferase-coupled chemiluminescent assay (LCCA). The following applies: read-out: KDR IC50.
Another assay deals with EGFR (Homo sapiens (Human), UniProt P00533). The assay can be described thus: EGFR kinase inhibition, luciferase-coupled chemiluminescent assay (LCCA). The note with it: read-out: EGFR IC50.
Another assay concerns the target EphB4 (Homo sapiens (Human), UniProt P54760). Put plainly: EphB4 kinase inhibition, 33P phosphoryl transfer assay (radiometric). It is filed as biochemical.
The next assay concerns the target EphA2 (Homo sapiens (Human), UniProt P29317). The assay can be described thus: EphA2 kinase inhibition, luciferase-coupled chemiluminescent assay (LCCA). The note with it: read-out: EphA2 IC50.

Some results are limits rather than exact numbers.

Chain of EphA2 (P29317 598-890): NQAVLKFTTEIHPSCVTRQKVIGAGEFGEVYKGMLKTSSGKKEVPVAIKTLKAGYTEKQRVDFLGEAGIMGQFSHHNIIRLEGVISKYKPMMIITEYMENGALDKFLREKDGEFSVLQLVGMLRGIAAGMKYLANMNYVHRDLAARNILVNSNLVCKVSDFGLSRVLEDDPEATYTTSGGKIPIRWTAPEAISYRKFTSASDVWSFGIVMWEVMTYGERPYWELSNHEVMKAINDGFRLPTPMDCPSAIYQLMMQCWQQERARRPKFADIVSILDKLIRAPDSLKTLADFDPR
Chain of KDR (P35968 807-1356): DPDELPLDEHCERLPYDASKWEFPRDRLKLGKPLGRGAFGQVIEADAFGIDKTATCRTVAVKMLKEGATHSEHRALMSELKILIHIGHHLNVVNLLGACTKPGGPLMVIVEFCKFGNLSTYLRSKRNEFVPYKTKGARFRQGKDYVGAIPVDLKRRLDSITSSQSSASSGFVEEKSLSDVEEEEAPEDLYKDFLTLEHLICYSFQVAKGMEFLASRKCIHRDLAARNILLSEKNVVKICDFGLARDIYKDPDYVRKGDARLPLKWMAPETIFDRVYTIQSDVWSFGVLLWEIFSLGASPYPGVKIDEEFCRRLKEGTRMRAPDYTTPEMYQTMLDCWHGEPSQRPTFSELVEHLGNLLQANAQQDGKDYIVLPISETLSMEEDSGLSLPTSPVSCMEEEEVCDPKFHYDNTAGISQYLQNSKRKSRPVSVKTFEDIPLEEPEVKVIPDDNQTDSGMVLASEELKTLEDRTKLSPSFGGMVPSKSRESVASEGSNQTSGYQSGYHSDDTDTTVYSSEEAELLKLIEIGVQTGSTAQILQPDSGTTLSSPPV
Chain of EphB4 (P54760 605-890): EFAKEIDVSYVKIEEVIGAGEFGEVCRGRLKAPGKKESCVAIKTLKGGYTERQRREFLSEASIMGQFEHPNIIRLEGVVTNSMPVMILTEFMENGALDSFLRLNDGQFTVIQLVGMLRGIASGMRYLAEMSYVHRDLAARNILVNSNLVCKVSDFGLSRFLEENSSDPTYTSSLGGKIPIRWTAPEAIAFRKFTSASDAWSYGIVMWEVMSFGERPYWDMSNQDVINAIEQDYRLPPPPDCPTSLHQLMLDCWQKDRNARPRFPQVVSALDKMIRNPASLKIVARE
Experimental for EphA2: Kinase activity and compound inhibition are investigated using one or more of the three assay formats described below. The ATP concentrations are selected near its Michaelis-Menten constant (KM) for each individual kinase. Dose-response experiments are performed at ten different inhibitor concentrations in a 384-well plate format. […] Typically H is close to unity.
In the LCCA assays, kinase activity is measured by the ATP consumption that is accurately measured by luciferase-coupled chemiluminescence. Greiner 384-well white clear bottom medium binding plates are used for LCCA. Briefly the kinase reaction is initiated by mixing compounds, ATP and kinases in a 20 μL volume. At the end of the kinase reaction, a 20 μL luciferase-luciferin mix is added and the chemiluminescent signal is read on a Wallac Victor^2 reader.

On to `COc1cc2c(Nc3ccc(Br)c(Cl)c3)ncnc2cc1O[C@H]1CO[C@H]2[C@@H]1OC[C@@H]2OC` [Example 73, 1,4:3,6-dianhydro-2-O-[4-[(4-bromo-3-chlorophenyl)amino]-6-(methyloxy)quinazolin-7-yl]-5-O-methyl-L-iditol], for which the half-inhibitory concentration (IC50) on KDR is less than 50 nM.
On to `COc1cc2c(Nc3ccc(Br)c(Cl)c3)ncnc2cc1O[C@H]1CO[C@H]2[C@@H]1OC[C@H]2OC` [Example 78, 1,4:3,6-dianhydro-2-O-[4-[(4-bromo-3-chlorophenyl)amino]-6-(methyloxy)quinazolin-7-yl]-5-O-methyl-D-glucitol], for which the IC50 on KDR is less than 50 nM.
Consider `COc1cc2c(Nc3c(F)cccc3F)ncnc2cc1O[C@@H]1CO[C@@H]2[C@H]1OC[C@H]2F` [Example 87, 1,4:3,6-dianhydro-2-deoxy-5-O-[4-[(2,6-difluorophenyl)amino]-6-(methyloxy)quinazolin-7-yl]-2-fluoro-D-iditol], for which the IC50 at KDR and on EGFR was less than 50 nM in each case.
Take `COc1cc2c(Nc3ccc(F)cc3F)ncnc2cc1O[C@@H]1CO[C@@H]2[C@H]1OC[C@H]2F` [Example 90, 1,4:3,6-dianhydro-2-deoxy-5-O-[4-[(2,4-difluorophenyl)amino]-6-(methyloxy)quinazolin-7-yl]-2-fluoro-D-iditol]: the half-inhibitory concentration (IC50) on KDR and on EGFR was less than 50 nM in each case.
Consider `COc1cc2c(Nc3ccc(Cl)c(Cl)c3F)ncnc2cc1O[C@@H]1CO[C@@H]2[C@H]1OC[C@H]2F` [Example 97, 1,4:3,6-dianhydro-2-deoxy-5-O-[4-[(3,4-dichloro-2-fluorophenyl)amino]-6-(methyloxy)quinazolin-7-yl]-2-fluoro-D-iditol], for which the IC50 against EphB4, on KDR and on EGFR was less than 50 nM throughout.
Regarding `COc1cc2c(Nc3cc(F)c(Br)c(Cl)c3)ncnc2cc1O[C@@H]1CO[C@@H]2[C@H]1OC[C@H]2F` [Example 104, 1,4:3,6-dianhydro-5-O-[4-[(4-bromo-3-chloro-5-fluorophenyl)amino]-6-(methyloxy)quinazolin-7-yl]-2-deoxy-2-fluoro-D-iditol], the concentration for half-maximal inhibition (IC50) against EphB4, at KDR and on EGFR was less than 50 nM in each case.
Turning to `COc1cc2c(Nc3ccc(Cl)cc3F)ncnc2cc1O[C@@H]1CO[C@@H]2[C@H]1OC[C@H]2F` [Example 109, 1,4:3,6-dianhydro-5-O-[4-[(4-chloro-2-fluorophenyl)amino]-6-(methyloxy)quinazolin-7-yl]-2-deoxy-2-fluoro-D-iditol], the half-maximal inhibitory concentration (IC50) at KDR and on EGFR was less than 50 nM throughout.
Take `COc1cc2c(Nc3c(F)cc(F)cc3Br)ncnc2cc1O[C@@H]1CO[C@@H]2[C@H]1OC[C@H]2F` [Example 120, 1,4:3,6-dianhydro-5-O-[4-[(2-bromo-4,6-difluorophenyl)amino]-6-(methyloxy)quinazolin-7-yl]-2-deoxy-2-fluoro-D-iditol]: the half-inhibitory concentration (IC50) at KDR and on EGFR was less than 50 nM throughout.
Turning to `COc1cc2c(Nc3cc(C(F)(F)F)ccc3Cl)ncnc2cc1O[C@@H]1CO[C@@H]2[C@H]1OC[C@H]2F` [Example 122, 1,4:3,6-dianhydro-5-O-[4-{[2-chloro-5-(trifluoromethyl)phenyl]amino}-6-(methyloxy)quinazolin-7-yl]-2-deoxy-2-fluoro-D-iditol], the IC50 on KDR and on EGFR was less than 50 nM each time.
Consider `COc1ccc(OC)c(Nc2ncnc3cc(O[C@@H]4CO[C@@H]5[C@H]4OC[C@H]5F)c(OC)cc23)c1` [Example 134, 1,4:3,6-dianhydro-5-O-[4-{[2,5-bis(methyloxy)phenyl]amino}-6-(methyloxy)quinazolin-7-yl]-2-deoxy-2-fluoro-D-iditol], for which the IC50 on KDR and at EGFR was less than 50 nM throughout.
With `COc1cc2c(Nc3ccc(Cl)c(Cl)c3)ncnc2cc1OCc1noc(CN(C)C)n1` [Example 138, N-(3,4-dichlorophenyl)-7-[({5-[(dimethylamino)methyl]-1,2,4-oxadiazol-3-yl}methyl)oxy]-6-(methyloxy)quinazolin-4-amine], the concentration for half-maximal inhibition (IC50) at EphB4, on KDR and at EGFR was less than 50 nM each time.
Take `COc1cc2c(Nc3ccc(Cl)c(Cl)c3)ncnc2cc1OCc1nc(CN2CCN(C)CC2)no1` [Example 140, N-(3,4-dichlorophenyl)-6-(methyloxy)-7-[({3-[(4-methylpiperazin-1-yl)methyl]-1,2,4-oxadiazol-5-yl}methyl)oxy]quinazolin-4-amine]: the IC50 on EphB4, at KDR and on EGFR was less than 50 nM throughout.
For the compound `COc1cc2c(Nc3ccc(Cl)c(Cl)c3)ncnc2cc1OCC1CN(C(=O)OC(C)(C)C)CCO1` (stereo not drawn) [Example 148, 1,1-dimethylethyl 2-({[4-[(3,4-dichlorophenyl)amino]-6-(methyloxy)quinazolin-7-yl]oxy}methyl)morpholine-4-carboxylate], the IC50 against EphB4, on KDR and on EGFR was less than 50 nM throughout.
Consider `COc1cc2c(Nc3ccc(Cl)c(Cl)c3)ncnc2cc1OCC1CN(C)CCCO1` (stereo not drawn) [Example 155, N-(3,4-dichlorophenyl)-7-{[(4-methyl-1,4-oxazepan-2-yl)methyl]oxy}-6-(methyloxy)quinazolin-4-amine], for which the half-maximal inhibitory concentration (IC50) on EphB4, on KDR and on EGFR was less than 50 nM in each case.
Regarding `COc1cc2c(Nc3ccc(Cl)c(Cl)c3)ncnc2cc1OCc1noc(C(C)(C)C)n1` [Example 157, N-(3,4-dichlorophenyl)-7-({[5-(1,1-dimethylethyl)-1,2,4-oxadiazol-3-yl]methyl}oxy)-6-(methyloxy)quinazolin-4-amine], the IC50 on KDR and at EGFR was less than 50 nM in each case.
With `COc1cc2c(Nc3ccc(Cl)c(Cl)c3)ncnc2cc1OCc1noc(C)c1-c1ccccc1` [Example 161, N-(3,4-dichlorophenyl)-6-(methyloxy)-7-{[(5-methyl-4-phenylisoxazol-3-yl)methyl]oxy}quinazolin-4-amine], the IC50 against EphB4, on KDR and on EGFR was less than 50 nM in each case.
On to `COc1cc2c(Nc3ccc(Cl)c(Cl)c3)ncnc2cc1OCc1noc(-c2cccc(C(F)(F)F)c2)n1` [Example 166, N-(3,4-dichlorophenyl)-6-(methyloxy)-7-[({5-[3-(trifluoromethyl)phenyl]-1,2,4-oxadiazol-3-yl}methyl)oxy]quinazolin-4-amine], for which the IC50 at KDR and on EGFR was less than 50 nM in each case.
On to `CCN1CCN(c2nc(COc3cc4ncnc(Nc5ccc(Cl)c(Cl)c5)c4cc3OC)cs2)CC1` [Example 267, N-(3,4-dichlorophenyl)-7-({[2-(4-ethylpiperazin-1-yl)-1,3-thiazol-4-yl]methyl}oxy)-6-(methyloxy)quinazolin-4-amine], for which the 50% inhibitory concentration (IC50) against EphB4 was 1000 to 20000 nM; at EGFR, less than 50 nM; at EphA2 it was 1000 to 20000 nM.
`COc1cc2c(Nc3ccc(Cl)c(Cl)c3)ncnc2cc1OCC1CN(C)CCN1C` (stereo not drawn) [Example 268, N-(3,4-dichlorophenyl)-7-{[(1,4-dimethylpiperazin-2-yl)methyl]oxy}-6-(methyloxy)quinazolin-4-amine]: the concentration for half-maximal inhibition (IC50) at EphB4 was 50 to 1000 nM; on EGFR, less than 50 nM; at EphA2, 1000 to 20000 nM.
The corresponding values for `COc1cc2c(Nc3ccc(Cl)c(Cl)c3)ncnc2cc1OCC1CN(C(C)C)CCO1` (stereo not drawn) [Example 270, N-(3,4-dichlorophenyl)-7-({[4-(1-methylethyl)morpholin-2-yl]methyl}oxy)-6-(methyloxy)quinazolin-4-amine] are 50 to 1000 nM, less than 50 nM and 1000 to 20000 nM.
The corresponding values for `COc1cc2c(Nc3ccc(Cl)c(Cl)c3)ncnc2cc1OCC1CN(CCCc2ccccc2)CCO1` (stereo not drawn) [Example 271, N-(3,4-dichlorophenyl)-6-(methyloxy)-7-({[4-(3-phenylpropyl)morpholin-2-yl]methyl}oxy)quinazolin-4-amine] are 50 to 1000 nM, less than 50 nM and 1000 to 20000 nM.
The corresponding values for `COCCN1CCOC(COc2cc3ncnc(Nc4ccc(Cl)c(Cl)c4)c3cc2OC)C1` (stereo not drawn) [Example 272, N-(3,4-dichlorophenyl)-6-(methyloxy)-7-[({4-[2-(methyloxy)ethyl]morpholin-2-yl}methyl)oxy]quinazolin-4-amine] are 50 to 1000 nM, less than 50 nM and 1000 to 20000 nM.
For the compound `CCOC(=O)C(C)N1CCOC(COc2cc3ncnc(Nc4ccc(Cl)c(Cl)c4)c3cc2OC)C1` (stereo not drawn) [Example 273, ethyl 2-[2-({[4-[(3,4-dichlorophenyl)amino]-6-(methyloxy)quinazolin-7-yl]oxy}methyl)morpholin-4-yl]propanoate], the figures for the IC50 against EphB4, at EGFR and on EphA2 were 1000 to 20000 nM, less than 50 nM and 1000 to 20000 nM, respectively.
As to `COc1cc2c(Nc3ccc(Cl)c(Cl)c3)ncnc2cc1OCC1CN(CCOCCO)CCO1` (stereo not drawn) [Example 275, 2-({2-[2-({[4-[(3,4-dichlorophenyl)amino]-6-(methyloxy)quinazolin-7-yl]oxy}methyl)morpholin-4-yl]ethyl}oxy)ethanol], the figures for the concentration for half-maximal inhibition (IC50) on EphB4, on EGFR and on EphA2 were 1000 to 20000 nM, less than 50 nM and 1000 to 20000 nM, respectively.
Regarding `COc1cc2c(Nc3ccc(Cl)c(Cl)c3)ncnc2cc1OCC1CN(CCCCCC#N)CCO1` (stereo not drawn) [Example 277, 6-[2-({[4-[(3,4-dichlorophenyl)amino]-6-(methyloxy)quinazolin-7-yl]oxy}methyl)morpholin-4-yl]hexanenitrile], the half-maximal inhibitory concentration (IC50) is 50 to 1000 nM at EphB4, less than 50 nM at EGFR and 1000 to 20000 nM on EphA2.
“N-(3,4-dichlorophenyl)-6-(methyloxy)-7-{[(5-piperidin-2-yl-1,2,4-oxadiazol-3-yl)methyl]oxy}quinazolin-4-amine hydrochloride [Example 31]”: the 50% inhibitory concentration (IC50) at EphB4, at KDR and at EGFR was less than 50 nM each time.

In general, IC50 refers to the concentration needed to halve the response being measured.

For the origin of these results see patent US9796704B2, “Substituted quinazolines as receptor-type kinase inhibitors” (Symphony Evolution, Inc., priority 2002, dated 2017).
